Like-named read-outs stand apart in the source and are kept apart here.
What was measured:
[1] = molecular target: T1, human adrenergic receptor (ADR) β1 (Homo sapiens, UniProt P08588); assay: ADRβ1 activation, Ca2+ influx (Fluo-8) in overexpressing chem-1 cells; format: cell-based; conditions: for ADRβ1 Emax: % of maximal signal obtained by adrenaline, average (95% CI); for Emax: Chem-1, read-out: ADRβ1 Emax; for potency at ADRβ1, times less potent than adrenaline: relative to the endogenous agonist adrenaline
T1 construct: host or cells: rat chem-1 cells
Excerpt: Cells overexpressing human ADRs α1A, α1B, α1D, α2A, α2B, β1 and β2 (Eurofins Discovery Services, St. Charles, MO, USA, product numbers: HTS087RTA, HTS158RTA, HTS216RTA, HTS096RTA, HTS157LRTA, HTS104RTA and HTS073RTA, respectively) were used to study the potency (EC50) and efficacy (Emax) of the selected compounds for these receptors by quantifying Ca^2+ influx upon receptor activation. ADRα1A, α1B, α1D, α2A, β1 and β2 were overexpressed in rat chem-1 cells. ADRα2B was overexpressed in HEK293 cells. The cells were seeded (10,000–50,000 cells/well) in a black 96-well plate (VWR International, Leuven, Belgium) and incubated at 37 °C and 5% CO2 for 24 h. After 24 h, the cells were washed with Hank’s balanced salt solution (HBSS) (Gibco, Paisley, UK) containing 0.35 g/L sodium bicarbonate and incubated with 5 µg/mL Fluo-8 AM in HBSS (pH 7.4) supplemented with 2.5 mM probenecid for 1 h. […] Peak tops of the obtained fluorescence response–time curves were corrected for baseline fluorescence and used to construct concentration–response relationships.
Concentration–response relationships for TAAR1 activation are presented as percentages of the maximal intracellular cAMP level induced by full the TAAR1 agonist phenethylamine and corrected for baseline cAMP accumulation. […] Experiments were run in duplicate in 7–9 independent experiments for ADR and were run in 3–5 independent experiments for TAAR1.

[2] = molecular target: T2, human adrenergic receptor (ADR) α1A (Homo sapiens, UniProt P35348); assay: ADRα1A activation, Ca2+ influx (Fluo-8) in overexpressing chem-1 cells; format: cell-based; conditions: for ADRα1A Emax: % of maximal signal obtained by adrenaline, average (95% CI); for EC50: Ca2+ response, chem-1 cells, average (95% confidence interval), 7–9 experiments; for Emax: Chem-1
T2 construct: host or cells: rat chem-1 cells
T2 sequence (P35348 1-466): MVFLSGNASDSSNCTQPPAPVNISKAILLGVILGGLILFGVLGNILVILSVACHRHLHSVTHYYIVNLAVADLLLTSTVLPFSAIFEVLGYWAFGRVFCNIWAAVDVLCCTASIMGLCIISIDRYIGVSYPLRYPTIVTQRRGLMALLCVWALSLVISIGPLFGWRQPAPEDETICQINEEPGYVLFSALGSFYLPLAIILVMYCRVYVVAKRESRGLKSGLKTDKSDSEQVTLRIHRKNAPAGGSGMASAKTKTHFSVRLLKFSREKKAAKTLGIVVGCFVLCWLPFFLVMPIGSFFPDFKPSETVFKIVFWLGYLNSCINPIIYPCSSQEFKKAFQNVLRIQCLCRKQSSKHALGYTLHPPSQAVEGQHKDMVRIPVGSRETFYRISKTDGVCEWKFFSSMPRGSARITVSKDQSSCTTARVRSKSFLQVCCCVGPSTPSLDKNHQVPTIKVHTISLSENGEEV

[3] = molecular target: T3, human adrenergic receptor (ADR) α1D (Homo sapiens, UniProt P25100); assay: ADRα1D activation, Ca2+ influx (Fluo-8) in overexpressing chem-1 cells; format: cell-based; conditions: for ADRα1D Emax: % of maximal signal obtained by adrenaline, average (95% CI); for EC50: Ca2+ response, chem-1 cells, average (95% confidence interval), 7–9 experiments; for Emax: Chem-1
T3 construct: host or cells: rat chem-1 cells
T3 sequence (P25100 1-572): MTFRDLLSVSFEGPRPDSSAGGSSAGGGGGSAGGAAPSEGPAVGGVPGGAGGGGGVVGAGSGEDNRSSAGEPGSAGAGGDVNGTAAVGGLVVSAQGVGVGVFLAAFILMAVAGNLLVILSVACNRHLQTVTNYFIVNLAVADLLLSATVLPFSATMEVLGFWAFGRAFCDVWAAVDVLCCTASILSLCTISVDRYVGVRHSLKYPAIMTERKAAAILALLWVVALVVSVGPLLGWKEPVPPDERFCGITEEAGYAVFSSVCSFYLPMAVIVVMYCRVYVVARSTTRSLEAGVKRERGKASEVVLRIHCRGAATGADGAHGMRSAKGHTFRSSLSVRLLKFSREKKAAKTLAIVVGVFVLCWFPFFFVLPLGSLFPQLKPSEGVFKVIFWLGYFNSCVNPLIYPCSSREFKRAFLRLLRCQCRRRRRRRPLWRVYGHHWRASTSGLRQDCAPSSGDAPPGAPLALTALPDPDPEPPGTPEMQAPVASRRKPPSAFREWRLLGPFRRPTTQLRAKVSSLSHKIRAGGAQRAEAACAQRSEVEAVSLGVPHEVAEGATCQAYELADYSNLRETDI

[4] = parameters: method as in earlier work; conditions: humans; ref 47 (Feng et al. 2012); cited from earlier work
[5] = parameters: method as in PMID 33227193, PMID 31984737; conditions: humans, n = 3, cited from earlier work

T1 sequence (P08588 whole entry): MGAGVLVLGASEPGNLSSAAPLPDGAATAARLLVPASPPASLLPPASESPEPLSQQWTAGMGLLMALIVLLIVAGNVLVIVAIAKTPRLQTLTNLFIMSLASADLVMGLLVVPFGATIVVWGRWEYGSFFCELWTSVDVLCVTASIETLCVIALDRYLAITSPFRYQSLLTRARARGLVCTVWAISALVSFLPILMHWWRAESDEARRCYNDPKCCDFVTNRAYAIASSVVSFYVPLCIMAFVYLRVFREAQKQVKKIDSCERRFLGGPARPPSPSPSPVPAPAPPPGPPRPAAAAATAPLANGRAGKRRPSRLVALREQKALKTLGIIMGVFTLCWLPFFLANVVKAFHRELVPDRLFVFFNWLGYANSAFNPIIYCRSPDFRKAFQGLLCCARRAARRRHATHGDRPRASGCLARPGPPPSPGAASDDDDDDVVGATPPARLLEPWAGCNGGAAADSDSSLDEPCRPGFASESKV

Q: Which EC50 [1] does the source give for CC(C)CC(C)N (centres unmarked) here?
A: > 300 µM

Q: And the “ADRβ1 Emax” value [1]?
A: -

Q: And the “ADRα1A Emax” value [2]?
A: -

Q: And the EC50 [2]?
A: > 300 µM

Q: And the “ADRα1D Emax” value [3]?
A: -

Q: What about the EC50 [3] of the same compound?
A: > 300 µM

Q: For CC(C)CCCC(C)N (centres unmarked), which EC50 [1] is on record?
A: > 300 µM

Q: And the “ADRβ1 Emax” value [1]?
A: -

Q: What about the “ADRα1A Emax” value [2] of the same compound?
A: -

Q: And the EC50 [2]?
A: > 300 µM

Q: What about the “ADRα1D Emax” value [3] of the same compound?
A: -

Q: And the EC50 [3]?
A: > 300 µM

Q: Which EC50 [1] does the source give for CCC(C)CC(C)N (centres unmarked) [1,3-Dimethylamylamine, 1,3-dimethylamylamine] here?
A: > 300 µM

Q: And the “ADRβ1 Emax” value [1]?
A: -

Q: What about the “ADRα1A Emax” value [2] of the same compound?
A: -

Q: What about the EC50 [2] of the same compound?
A: > 300 µM

Q: And the “ADRα1D Emax” value [3]?
A: -

Q: And the EC50 [3]?
A: > 300 µM

Q: With CN(C)CCO [Dimethylaminoethanol, dimethylaminoethanol] as the compound, how does the EC50 [1] read?
A: > 300 µM

Q: What about the “ADRβ1 Emax” value [1] of the same compound?
A: -

Q: What about the “ADRα1A Emax” value [2] of the same compound?
A: -

Q: What about the EC50 [2] of the same compound?
A: > 300 µM

Q: And the “ADRα1D Emax” value [3]?
A: -

Q: And the EC50 [3]?
A: > 300 µM

Q: For CN(C)CCc1ccccc1 [Dimethylphenethylamine, N,N-dimethylphenethylamine], which EC50 [1] is on record?
A: > 300 µM

Q: And the “ADRβ1 Emax” value [1]?
A: -

Q: And the “ADRα1A Emax” value [2]?
A: -

Q: What about the EC50 [2] of the same compound?
A: > 300 µM

Q: And the EC50 [3]?
A: 8.4 µM

Q: What about the Emax [3] of the same compound?
A: 7.9%

Q: With CNCC(O)c1ccccc1 (centres unmarked) [Halostachine, halostachine] as the compound, how does the EC50 [1] read?
A: > 300 µM

Q: What about the “ADRβ1 Emax” value [1] of the same compound?
A: -

Q: What about the EC50 [2] of the same compound?
A: 8.7 µM

Q: And the Emax [2]?
A: 59%

Q: And the EC50 [3]?
A: 2.1 µM

Q: What about the Emax [3] of the same compound?
A: 82%

Q: Which results are given for Oc1ccc(CC2NCCc3cc(O)c(O)cc32)cc1 (centres unmarked) [Higenamine, higenamine]?
A: EC50 [1]: 0.034 µM; Emax [1]: 105%; potency at ADRβ1, times less potent than adrenaline [1]: ~3 times; ADRα1A Emax [2]: -; EC50 [2]: > 300 µM; ADRα1D Emax [3]: -; EC50 [3]: > 300 µM; maximal plasma concentration [4]: 8.4 nM

Q: With CN(C)CCc1ccc(O)cc1 [Hordenine, hordenine] as the compound, how does the EC50 [1] read?
A: > 300 µM

Q: What about the “ADRβ1 Emax” value [1] of the same compound?
A: -

Q: What about the “ADRα1A Emax” value [2] of the same compound?
A: -

Q: And the EC50 [2]?
A: > 300 µM

Q: And the Human plasma level ([5]; 5.5 mg oral dose)?
A: 15 nM

Q: What about the Human plasma level ([5]; 100 mg oral dose) of the same compound?
A: 2.7 nM

Q: What about the EC50 [3] of the same compound?
A: 34 µM

Q: And the Emax [3]?
A: 23%

Q: With CC(C)NCC(O)c1ccc(O)cc1 (centres unmarked) [Isopropyloctopamine, isopropyloctopamine] as the compound, how does the “ADRα1A Emax” value [2] read?
A: -

Q: What about the EC50 [2] of the same compound?
A: > 300 µM

Q: What about the “ADRα1D Emax” value [3] of the same compound?
A: -

Q: What about the EC50 [3] of the same compound?
A: > 300 µM

Q: With CNC(C)C(O)c1ccc(O)cc1 (centres unmarked) [Methylsynephrine] as the compound, how does the EC50 [1] read?
A: 25 µM

Q: What about the Emax [1] of the same compound?
A: 75%

Q: What about the “potency at ADRβ1, times less potent than adrenaline” value [1] of the same compound?
A: approximately 2500 times

Q: And the EC50 [2]?
A: 44 µM

Q: What about the Emax [2] of the same compound?
A: 16%

Q: And the “ADRα1D Emax” value [3]?
A: -

Q: What about the EC50 [3] of the same compound?
A: > 300 µM

Q: For NCCc1ccccc1 [Phenethylamine, phenethylamine], which EC50 [1] is on record?
A: > 300 µM

Q: And the “ADRβ1 Emax” value [1]?
A: -

Q: And the “ADRα1A Emax” value [2]?
A: -

Q: And the EC50 [2]?
A: > 300 µM

Q: What about the “ADRα1D Emax” value [3] of the same compound?
A: -

Q: And the EC50 [3]?
A: > 300 µM

Q: What does the source list for NCCc1ccc(O)cc1 [Tyramine, tyramine]?
A: ADRα1A Emax [2]: -; EC50 [2]: > 300 µM; ADRα1D Emax [3]: -; EC50 [3]: > 300 µM

Q: For NCC(O)c1ccc(O)cc1 (centres unmarked) [p-Octopamine, p-octopamine], which EC50 [2] is on record?
A: 11 µM

Q: And the Emax [2]?
A: 87%

Q: And the EC50 [3]?
A: 1.2 µM

Q: What about the Emax [3] of the same compound?
A: 100%

Q: Which EC50 [2] does the source give for CNCC(O)c1ccc(O)cc1 (centres unmarked) [p-Synephrine, p-synephrine] here?
A: 2.4 µM

Q: And the Emax [2]?
A: 82%

Q: And the Emax [3]?
A: 80%

Q: With CC(CN)c1ccccc1 (stereo not drawn) [β-Methylphenethyl-amine, beta-methylphenethylamine] as the compound, how does the EC50 [1] read?
A: > 300 µM

Q: What about the “ADRβ1 Emax” value [1] of the same compound?
A: -

Q: What about the “ADRα1A Emax” value [2] of the same compound?
A: -

Q: What about the EC50 [2] of the same compound?
A: > 300 µM

Q: What about the “ADRα1D Emax” value [3] of the same compound?
A: -

Q: And the EC50 [3]?
A: > 300 µM

Reference: PMC11174489, “In Vitro Activation of Human Adrenergic Receptors and Trace Amine-Associated Receptor 1 by Phenethylamine Analogues Present in Food Supplements” (Nutrients, 2024)
